Test results taken from patent US8912144B2, “Method for treating stroke via administration of NEP1-40 and inosine” (Children's Medical Center Corporation, priority 2003, dated 2014).

Tested on: corticospinal neurons (CSNs/CSMNs)
Assay: Laser-capture microdissection and Illumina microarray gene expression in corticospinal neurons contralateral to stroke
Format: in vivo, rat
Method: In a separate group of animals (n=20), layer V pyramidal cells of the sensorimotor cortex were retrogradely labeled by injecting Alexa-Fluor-488-conjugated cholera toxin B subunit (CTB; 300 U/μl in sterile saline) into the cervical spinal cord. For this, animals were anesthetized with a combination of ketamine and Domitor (medetomidine) and a laminectomy was performed at the cervical level of the spinal cord (C2-C4). CTB was stereotaxically delivered into four sites lateral to the corticospinal tract. Injections (1.3 μl) were spaced 1 mm apart on the rostro-caudal axis, and were made 0.5 mm to the left and right of the midline. After allowing two weeks for transport of the tracer, we performed either sham surgery with no treatment (n=6) or stroke surgery combined with saline (n=3) or inosine (n=4) treatment as described above. Seven days later, animals were decapitated under transient gas anesthesia, brains were removed and rinsed in cold RPMI medium, and a tissue block containing the sensorimotor cortex was dissected and placed in OCT Tissue Tek Medium (Sakura Finetek USA Inc., CA) on dry ice within five minutes of death. Ten μm sections were cut onto precleaned Gold Seal RITE-ON glass slides (Gold Seal Prod-ucts, Portsmouth, N.H.), placed on dry ice, and rapidly stored at −80° C.
Slide-mounted sections were thawed and dehydrated in RNAse-free ethanol gradients and xylene. Retro-gradely labeled, fluorescent cortical pyramidal cells in the undamaged hemisphere were individually captured using the Arcturus VERITAS system. ≧500 cells were collected from each animal and stored in Arcturus extraction buffer at −80° C. Total RNA was extracted from cells using the Micro-to-Midi TotalRNA Purification System (Invitrogen, Carlsbad Calif.) and double-amplified using the TargetAmp 2-Round Aminoallyl-aRNA Amplification kit 1.0 (Epicentre, Madison, Wis.). Amplified RNA was checked for average fragment length using the Agilent RNA 6000 Nano LabChip kit (Agilent Technologies, Santa Clara, Calif.) and then biotinylated and hybridized (1 μg) on Illumina RatRef-12 Expression BeadChip arrays (Illumina, San Diego Calif.), querying the expression of >22,000 RefSeq-curated rat transcripts. Results were obtained from a total of 15 samples representing 6 untreated controls, 4 animals with stroke treated with saline and 5 animals with stroke treated with inosine. Slides were processed and scanned with Illumina BeadStation platform according to the manufacturer protocol.
Raw data was analyzed using Bioconductor packages (www.bioconductor.org, (Gentleman et al., 2004)). Low level quality-control analysis was performed using inter-array Pearson correlation and clustering based on variance. Two arrays (1 saline and 1 inosine-treated) were outliers and were excluded from the analysis. Data was normalized using quantile normalization, and analysis of differential expression was performed using a linear model fitting (LIMMA package, (Smyth, 2005). Differentially expressed genes were classified according to gene ontology using Bioconductor packages and online tools (DAVID, http://david.abcc.ncifcrf.gov/). Pathway analysis was carried out using Ingenuity Pathway Analysis (Ingenuity Systems, www.ingenuity.com).

## OC[C@H]1O[C@@H](n2cnc3c(O)ncnc32)[C@H](O)[C@@H]1O [inosine]
A2m ILMN_70335
  Fold-Induction Stroke, ino vs. cntrl: 4.03
  Signal Intensity Inosine: 1924
ADRP ILMN_47969
  Fold-Induction Stroke, ino vs. cntrl: 4.12
  Signal Intensity Inosine: 3202
Adn ILMN_58846
  Fold-Induction Stroke, ino vs. cntrl: 4.53
  Signal Intensity Inosine: 2287
Aif1 ILMN_47707
  Fold-Induction Stroke, ino vs. cntrl: 2.67
  Signal Intensity Inosine: 4301
Arhgdib ILMN_66176
  Fold-Induction Stroke, ino vs. cntrl: 4.08
  Signal Intensity Inosine: 3057
Arpc1b ILMN_69642
  Fold-Induction Stroke, ino vs. cntrl: 2.61
  Signal Intensity Inosine: 758
Asb2 ILMN_50991
  Fold-Induction Stroke, ino vs. cntrl: 3.27
  Signal Intensity Inosine: 615
Aurkc ILMN_69140
  Fold-Induction Stroke, ino vs. cntrl: 1.43
  Signal Intensity Inosine: 1172
Bcl2a1 ILMN_62703
  Fold-Induction Stroke, ino vs. cntrl: 3.34
  Signal Intensity Inosine: 613
Btf3 ILMN_62809
  Fold-Induction Stroke, ino vs. cntrl: 0.43
  Signal Intensity Inosine: 787
C1qb ILMN_61448
  Fold-Induction Stroke, ino vs. cntrl: 2.76
  Signal Intensity Inosine: 1832
C1qg ILMN_55502
  Fold-Induction Stroke, ino vs. cntrl: 3.66
  Signal Intensity Inosine: 2499
C2 ILMN_63608
  Fold-Induction Stroke, ino vs. cntrl: 3.12
  Signal Intensity Inosine: 4113
C4-2 ILMN_59751
  Fold-Induction Stroke, ino vs. cntrl: 2.95
  Signal Intensity Inosine: 2409
Card9 ILMN_62382
  Fold-Induction Stroke, ino vs. cntrl: 2.83
  Signal Intensity Inosine: 865
Cd68 ILMN_60003
  Fold-Induction Stroke, ino vs. cntrl: 3.88
  Signal Intensity Inosine: 2117
Cd151 ILMN_62725
  Fold-Induction Stroke, ino vs. cntrl: 1.50
  Signal Intensity Inosine: 1171
Cdk5rap2 ILMN_57761
  Fold-Induction Stroke, ino vs. cntrl: 1.68
  Signal Intensity Inosine: 1377
Chd4 ILMN_55276
  Fold-Induction Stroke, ino vs. cntrl: 1.26
  Signal Intensity Inosine: 7413
Cml1 ILMN_50957
  Fold-Induction Stroke, ino vs. cntrl: 1.08
  Signal Intensity Inosine: 275
Comt ILMN_48330
  Fold-Induction Stroke, ino vs. cntrl: 1.09
  Signal Intensity Inosine: 400
Crabp2 ILMN_48069
  Fold-Induction Stroke, ino vs. cntrl: 2.62
  Signal Intensity Inosine: 1006
Cyba ILMN_65212
  Fold-Induction Stroke, ino vs. cntrl: 4.04
  Signal Intensity Inosine: 2617
Dhrsx ILMN_56966
  Fold-Induction Stroke, ino vs. cntrl: 1.38
  Signal Intensity Inosine: 8022
Dtx2 ILMN_65350
  Fold-Induction Stroke, ino vs. cntrl: 2.24
  Signal Intensity Inosine: 1792
Esd ILMN_57701
  Fold-Induction Stroke, ino vs. cntrl: 0.44
  Signal Intensity Inosine: 1416
Ftl1 ILMN_62100
  Fold-Induction Stroke, ino vs. cntrl: 2.24
  Signal Intensity Inosine: 11718
Fxr2h ILMN_59638
  Fold-Induction Stroke, ino vs. cntrl: 1.64
  Signal Intensity Inosine: 638
Gfap ILMN_68224
  Fold-Induction Stroke, ino vs. cntrl: 2.88
  Signal Intensity Inosine: 23099
ILMN_47707, over and above inosine's effect of decreasing stroke-induced changes
  Fold-induction CSMNs: Aif1: 2.33 fold
ILMN_47889
  Fold-Induction Stroke, ino vs. cntrl, Uxs1: 0.66
ILMN_47889, inosine after stroke
  Signal Intensity, Uxs1: 2868
ILMN_48004
  Fold-Induction Stroke, ino vs. cntrl, LOC366193: 0.67
ILMN_48004, inosine after stroke
  Signal Intensity, LOC366193: 2396
ILMN_48069, over and above inosine's effect of decreasing stroke-induced changes
  Fold-induction CSMNs: Crabp2: 2.12 fold
ILMN_48088, over and above inosine's effect of decreasing stroke-induced changes
  Fold-induction CSMNs: Ifitm3: 2.74 fold
ILMN_48320
  Fold-Induction Stroke, ino vs. cntrl, Ap3s1: 0.55
ILMN_48320, inosine after stroke
  Signal Intensity, Ap3s1: 285
ILMN_48323
  Fold-Induction Stroke, ino vs. cntrl, LOC499423: 0.53
ILMN_48323, inosine after stroke
  Signal Intensity, LOC499423: 1043
ILMN_48447
  Fold-Induction Stroke, ino vs. cntrl, Wee1: 0.83
ILMN_48447, inosine after stroke
  Signal Intensity, Wee1: 367
ILMN_48507
  Fold-Induction Stroke, ino vs. cntrl, Sfrs10: 0.72
ILMN_48507, inosine after stroke
  Signal Intensity, Sfrs10: 2745
ILMN_48587
  Fold-Induction Stroke, ino vs. cntrl, Scarb2: 0.71
ILMN_48587, inosine after stroke
  Signal Intensity, Scarb2: 569
ILMN_48688
  Fold-Induction Stroke, ino vs. cntrl, Sec6l1: 0.84
ILMN_48688, inosine after stroke
  Signal Intensity, Sec6l1: 587
ILMN_49300
  Fold-Induction Stroke, ino vs. cntrl, Ube4a: 0.58
ILMN_49300, inosine after stroke
  Signal Intensity, Ube4a: 1509
ILMN_49366
  Fold-Induction Stroke, ino vs. cntrl, LOC501195: 0.77
ILMN_49366, inosine after stroke
  Signal Intensity, LOC501195: 1460
ILMN_49569
  Fold-Induction Stroke, ino vs. cntrl, Kcnc2: 0.73
ILMN_49569, inosine after stroke
  Signal Intensity, Kcnc2: 4642
ILMN_49739
  Fold-Induction Stroke, ino vs. cntrl, Arfrp1: 0.93
ILMN_49739, inosine after stroke
  Signal Intensity, Arfrp1: 1014
ILMN_49819
  Fold-Induction Stroke, ino vs. cntrl, Dmp1: 0.38
ILMN_49819, inosine after stroke
  Signal Intensity, Dmp1: 267
ILMN_49884
  Fold-Induction Stroke, ino vs. cntrl, Ralbp1: 0.75
ILMN_49884, inosine after stroke
  Signal Intensity, Ralbp1: 1553
ILMN_50221
  Fold-Induction Stroke, ino vs. cntrl, Snx2: 0.66
ILMN_50221, inosine after stroke
  Signal Intensity, Snx2: 1681
ILMN_50467
  Fold-Induction Stroke, ino vs. cntrl, Rpn2: 0.71
ILMN_50467, inosine after stroke
  Signal Intensity, Rpn2: 835
ILMN_50573
  Fold-Induction Stroke, ino vs. cntrl, RAMP4: 0.75
ILMN_50573, inosine after stroke
  Signal Intensity, RAMP4: 544
ILMN_50686
  Fold-Induction Stroke, ino vs. cntrl, Cdc37l: 0.83
ILMN_50686, inosine after stroke
  Signal Intensity, Cdc37l: 625
ILMN_50922
  Fold-Induction Stroke, ino vs. cntrl, LOC498489: 0.49
ILMN_50922, inosine after stroke
  Signal Intensity, LOC498489: 603
ILMN_50967
  Fold-Induction Stroke, ino vs. cntrl, Ube2m: 0.59
ILMN_50967, inosine after stroke
  Signal Intensity, Ube2m: 332
ILMN_51108
  Fold-Induction Stroke, ino vs. cntrl, LOC499428: 0.50
ILMN_51108, inosine after stroke
  Signal Intensity, LOC499428: 678
ILMN_51249, LCM-captured CSMNs contralateral a stroke
  Fold-Induction, complement cascade gene C3: 2.17 fold
ILMN_51277, over and above inosine's effect of decreasing stroke-induced changes
  Fold-induction CSMNs: LOC305633, (P) Antxr2 protein: 3.13 fold
ILMN_51588
  Fold-Induction Stroke, ino vs. cntrl, Ik: 0.83
ILMN_51588, inosine after stroke
  Signal Intensity, Ik: 417
ILMN_51716
  Fold-Induction Stroke, ino vs. cntrl, LOC499767: 0.64
ILMN_51716, inosine after stroke
  Signal Intensity, LOC499767: 1723
ILMN_51717
  Fold-Induction Stroke, ino vs. cntrl, LOC497777: 0.58
ILMN_51717, inosine after stroke
  Signal Intensity, LOC497777: 577
ILMN_51868
  Fold-Induction Stroke, ino vs. cntrl, Tspan3: 0.47
ILMN_51868, inosine after stroke
  Signal Intensity, Tspan3: 3842
ILMN_51947
  Fold-Induction Stroke, ino vs. cntrl, LOC360807: 0.50
ILMN_51947, inosine after stroke
  Signal Intensity, LOC360807: 689
ILMN_51968
  Fold-Induction Stroke, ino vs. cntrl, LOC498931: 0.54
ILMN_51968, inosine after stroke
  Signal Intensity, LOC498931: 554
ILMN_51972
  Fold-Induction Stroke, ino vs. cntrl, LOC501619: 0.59
ILMN_51972, inosine after stroke
  Signal Intensity, LOC501619: 416
ILMN_52257
  Fold-Induction Stroke, ino vs. cntrl, Scd2: 0.42
ILMN_52257, inosine after stroke
  Signal Intensity, Scd2: 3009
ILMN_52577
  Fold-Induction Stroke, ino vs. cntrl, LOC317508: 0.58
ILMN_52577, inosine after stroke
  Signal Intensity, LOC317508: 493
ILMN_52827
  Fold-Induction Stroke, ino vs. cntrl, Nedd9: 0.73
ILMN_52827, inosine after stroke
  Signal Intensity, Nedd9: 550
ILMN_52968
  Fold-Induction Stroke, ino vs. cntrl, Atp6v1h: 0.62
ILMN_52968, inosine after stroke
  Signal Intensity, Atp6v1h: 525
ILMN_52985
  Fold-Induction Stroke, ino vs. cntrl, MGC94339: 0.70
ILMN_52985, inosine after stroke
  Signal Intensity, MGC94339: 547
ILMN_53046
  Fold-Induction Stroke, ino vs. cntrl, Ube2e3: 0.61
ILMN_53046, inosine after stroke
  Signal Intensity, Ube2e3: 434
ILMN_53076
  Fold-Induction Stroke, ino vs. cntrl, Arpc3: 0.68
ILMN_53076, inosine after stroke
  Signal Intensity, Arpc3: 423
ILMN_53085, over and above inosine's effect of decreasing stroke-induced changes
  Fold-induction CSMNs: Irf1: 1.83 fold
ILMN_53195
  Fold-Induction Stroke, ino vs. cntrl, LOC309362: 1.02
ILMN_53195, inosine after stroke
  Signal Intensity, LOC309362: 498
ILMN_53256
  Fold-Induction Stroke, ino vs. cntrl, Hat1: 0.69
ILMN_53256, inosine after stroke
  Signal Intensity, Hat1: 362
ILMN_53292
  Fold-Induction Stroke, ino vs. cntrl, LOC499978: 0.72
ILMN_53292, inosine after stroke
  Signal Intensity, LOC499978: 970
ILMN_53325, over and above inosine's effect of decreasing stroke-induced changes
  Fold-induction CSMNs: LOC498335, (P) Small inducible cytokine B13 precursor (CXCL13): 11.42 fold
ILMN_53575, over and above inosine's effect of decreasing stroke-induced changes
  Fold-induction CSMNs: Mt1a (Metallothionein): 2.69 fold
ILMN_53694
  Fold-Induction Stroke, ino vs. cntrl, Cnbp1: 0.76
ILMN_53694, inosine after stroke
  Signal Intensity, Cnbp1: 4491
ILMN_53763
  Fold-Induction Stroke, ino vs. cntrl, MGC94053: 0.59
